Reference: the NIST ThermoML archive (doi:10.1016/j.fluid.2018.05.028)
Numbers after ± are expanded uncertainties.

What was measured:
[1] = 101 kPa, Liquid; for viscosity: Concentric cylinders viscometry; for speed of sound: Single path-length method; for mass density: Vibrating tube method
[2] = refractive index (Na D-line) (dimensionless); details: 101 kPa, Liquid, Standard Abbe refractometry
[3] = xn = mol fraction of the nth substance listed; details: 101 kPa, Liquid, x1 = 1; for viscosity: Concentric cylinders viscometry; for speed of sound: Single path-length method; for mass density: Vibrating tube method
[4] = refractive index (Na D-line) (dimensionless); xn = mol fraction of the nth substance listed; details: 101 kPa, Liquid, Standard Abbe refractometry, x1 = 1

CCCCO [butan-1-ol]
Details | mass density, [1] [kg/m3] | refractive index, [2] | speed of sound, [1] [m/s] | viscosity, [1] [mPa·s]
298.15 K | 805.98 ± 0.81 | 1.3979 ± 0.0028 | 1239.6 ± 0.51 | 2.531 ± 0.014
303.15 K | 802.13 ± 0.81 | 1.3959 ± 0.0028 | 1222.8 ± 0.51 | 2.232 ± 0.013
308.15 K | 798.25 ± 0.81 | 1.3938 ± 0.0028 | 1206 ± 0.51 | 1.975 ± 0.013

CCCCO [butan-1-ol] + CCCCCCCCCCCCCCCC
Details | mass density, [3] [kg/m3] | refractive index, [4] | speed of sound, [3] [m/s] | viscosity, [3] [mPa·s]
293.15 K | 809.8 ± 0.81 | 1.3999 ± 0.0028 | 1256.6 ± 0.52 | 2.868 ± 0.015
298.15 K | 805.98 ± 0.81 | 1.3979 ± 0.0028 | 1239.6 ± 0.52 | 2.531 ± 0.014
303.15 K | 802.13 ± 0.81 | 1.3959 ± 0.0028 | 1222.8 ± 0.52 | 2.232 ± 0.013
308.15 K | 798.25 ± 0.81 | 1.3938 ± 0.0028 | 1206 ± 0.52 | 1.975 ± 0.013
313.15 K | 794.35 ± 0.81 | 1.3918 ± 0.0028 | 1189.4 ± 0.52 | 1.758 ± 0.012
318.15 K | 790.41 ± 0.81 | 1.3897 ± 0.0028 | 1172.8 ± 0.52 | 1.563 ± 0.011
323.15 K | 786.42 ± 0.81 | 1.3876 ± 0.0028 | 1156.2 ± 0.52 | 1.399 ± 0.011
328.15 K | 782.39 ± 0.81 | 1.3855 ± 0.0028 | 1139.7 ± 0.52 | 1.256 ± 0.01
333.15 K | 778.3 ± 0.81 | 1.3833 ± 0.0028 | 1123.2 ± 0.52 | 1.131 ± 0.01
338.15 K | 774.15 ± 0.81 | 1.381 ± 0.0028 | 1106.6 ± 0.52 | 1.021 ± 0.0098
343.15 K | 769.94 ± 0.81 | 1.3788 ± 0.0028 | 1090.1 ± 0.52 | 0.925 ± 0.0096

CCCCCCCC/C=C\CCCCCCCC(=O)OCC [ethyl (Z)-9-octadeceneoate]
Details | mass density, [1] [kg/m3] | refractive index, [2] | speed of sound, [1] [m/s] | viscosity, [1] [mPa·s]
298.15 K | 865.23 ± 1 | 1.4481 ± 0.0028 | 1376.2 ± 2 | 5.674 ± 0.061
303.15 K | 861.6 ± 1 | 1.4461 ± 0.0028 | 1358.4 ± 2 | 4.999 ± 0.054
308.15 K | 857.97 ± 1 | 1.4441 ± 0.0028 | 1340.8 ± 2 | 4.435 ± 0.048

CCCCCCCCCCCCCCCC [hexadecane]
Details | mass density, [1] [kg/m3] | refractive index, [2] | speed of sound, [1] [m/s] | viscosity, [1] [mPa·s]
298.15 K | 769.87 ± 0.83 | 1.4318 ± 0.0028 | 1338.5 ± 1 | 3.035 ± 0.021
303.15 K | 766.4 ± 0.83 | 1.4296 ± 0.0028 | 1319.8 ± 1 | 2.708 ± 0.019
308.15 K | 762.95 ± 0.83 | 1.4275 ± 0.0028 | 1301.3 ± 1 | 2.432 ± 0.017

CCCO [propan-1-ol]
Details | mass density, [1] [kg/m3] | refractive index, [2] | speed of sound, [1] [m/s] | viscosity, [1] [mPa·s]
298.15 K | 799.93 ± 0.81 | 1.3831 ± 0.0028 | 1205.7 ± 0.51 | 1.926 ± 0.012
303.15 K | 795.89 ± 0.81 | 1.381 ± 0.0028 | 1188.6 ± 0.51 | 1.716 ± 0.012
308.15 K | 791.82 ± 0.81 | 1.3789 ± 0.0028 | 1171.6 ± 0.51 | 1.532 ± 0.011

CCCO [propan-1-ol] + CCCCCCCC/C=C\CCCCCCCC(=O)OCC
Details | mass density, [3] [kg/m3] | refractive index, [4] | speed of sound, [3] [m/s] | viscosity, [3] [mPa·s]
293.15 K | 803.95 ± 0.81 | 1.3852 ± 0.0028 | 1223 ± 0.52 | 2.147 ± 0.013
298.15 K | 799.93 ± 0.81 | 1.3831 ± 0.0028 | 1205.7 ± 0.52 | 1.926 ± 0.012
303.15 K | 795.89 ± 0.81 | 1.381 ± 0.0028 | 1188.6 ± 0.52 | 1.716 ± 0.012
308.15 K | 791.82 ± 0.81 | 1.3789 ± 0.0028 | 1171.6 ± 0.52 | 1.532 ± 0.011
313.15 K | 787.71 ± 0.81 | 1.3768 ± 0.0028 | 1154.7 ± 0.52 | 1.379 ± 0.011
318.15 K | 783.56 ± 0.81 | 1.3747 ± 0.0028 | 1137.9 ± 0.52 | 1.234 ± 0.01
323.15 K | 779.36 ± 0.81 | 1.3726 ± 0.0028 | 1121.1 ± 0.52 | 1.112 ± 0.01
328.15 K | 775.1 ± 0.81 | 1.3704 ± 0.0028 | 1104.3 ± 0.52 | 1.004 ± 0.0098
333.15 K | 770.78 ± 0.81 | 1.3682 ± 0.0028 | 1087.5 ± 0.52 | 0.9109 ± 0.0096
338.15 K | 766.4 ± 0.81 | 1.366 ± 0.0028 | 1070.6 ± 0.52 | 0.8241 ± 0.0094
343.15 K | 761.93 ± 0.81 | 1.3635 ± 0.0028 | 1053.8 ± 0.52 | 0.7468 ± 0.0092

CCCO [propan-1-ol] + CCCCCCCCCCCCCCCC
Details | mass density, [3] [kg/m3] | refractive index, [4] | speed of sound, [3] [m/s] | viscosity, [3] [mPa·s]
293.15 K | 803.95 ± 0.81 | 1.3852 ± 0.0028 | 1223 ± 0.52 | 2.147 ± 0.013
298.15 K | 799.93 ± 0.81 | 1.3831 ± 0.0028 | 1205.7 ± 0.52 | 1.926 ± 0.012
303.15 K | 795.89 ± 0.81 | 1.381 ± 0.0028 | 1188.6 ± 0.52 | 1.716 ± 0.012
308.15 K | 791.82 ± 0.81 | 1.3789 ± 0.0028 | 1171.6 ± 0.52 | 1.532 ± 0.011
313.15 K | 787.71 ± 0.81 | 1.3768 ± 0.0028 | 1154.7 ± 0.52 | 1.379 ± 0.011
318.15 K | 783.56 ± 0.81 | 1.3747 ± 0.0028 | 1137.9 ± 0.52 | 1.234 ± 0.01
323.15 K | 779.36 ± 0.81 | 1.3726 ± 0.0028 | 1121.1 ± 0.52 | 1.112 ± 0.01
328.15 K | 775.1 ± 0.81 | 1.3704 ± 0.0028 | 1104.3 ± 0.52 | 1.004 ± 0.0098
333.15 K | 770.78 ± 0.81 | 1.3682 ± 0.0028 | 1087.5 ± 0.52 | 0.9109 ± 0.0096
338.15 K | 766.4 ± 0.81 | 1.366 ± 0.0028 | 1070.6 ± 0.52 | 0.8241 ± 0.0094
343.15 K | 761.93 ± 0.81 | 1.3635 ± 0.0028 | 1053.8 ± 0.52 | 0.7468 ± 0.0092
